Data published in US20230338564A1, “NEODEGRADER CONJUGATES” (Orum Therapeutics, Inc., priority 2020, published 2023).

Legend:
Assay in all cases: In vitro antiproliferation assay, General Procedure 1 (WST-8)
Type in all cases: cell-based
[1] = test system: SK-BR-3 breast cancer cell line; details: SK-BR-3 cells; neoDegrader conjugates (DAR 8) versus comparators; FIGS. 7 and 8
Method: (§1) The ability of neoDegrader conjugates to inhibit cell growth was measured using in vitro anti-proliferation assay. […] Conjugates were diluted in complete cell growth medium using 4-fold serial dilutions and 100 µL was added per well. […] Viability of remaining cells was determined by colorimetric WST-8 assay (Dojindo Molecular Technologies, Inc., Rockville, MD, US). WST-8 was added to 10% of the final volume and plates were incubated at 37° C. in a humidified 5% CO2 incubator for 2-4 hours. Plates were analyzed by measuring the absorbance at 450 nm (A450) in a multi-well plate reader. Background A450 absorbance of wells with media and WST-8 only was subtracted from all values. The percent viability was calculated by dividing each treated sample value by the average value of wells with untreated cells. The percent viability value was plotted against the test sample concentration in a semi-log plot for each treatment. IC50 values were calculated automatically.

[2] = test system: NCI-N87 gastric cancer cell line; details: NCI-N87 cells; neoDegrader conjugates (DAR 8) versus comparators; FIGS. 16 and 17
Method: as §1

[3] = test system: HL-60 (acute myeloid leukemia) cell line; details: AML; conjugates DAR 8, Mylotarg DAR not given
Method: as §1

| Molecule | anti-proliferative activity compared, in words [1] | anti-proliferative activity compared, in words [2] | IC50 [3] [nM] |
| --- | --- | --- | --- |
| Pertuzumab [reference compound] | significantly less active | significantly less active | – |
| Lintuzumab IgG1-Compound (Ia) (conjugate, chains of the INN, looked up, IgG1 conjugated to Compound (Ia)) VH: QVQLVQSGAEVKKPGSSVKVSCKASGYTFTDYNMHWVRQAPGQGLEWIGYIYPYNGGTGYNQKFKSKATITADESTNTAYMELSSLRSEDTAVYYCARGRPAMDYWGQGTLVTVSS VL: DIQMTQSPSSLSASVGDRVTITCRASESVDNYGISFMNWFQQKPGKAPKLLIYAASNQGSGVPSRFSGSGSGTDFTLTISSLQPDDFATYYCQQSKEVPWTFGQGTKVEIK | – | – | 0.012 |
| Lintuzumab IgG1-Compound (Id) (conjugate, chains of the INN, looked up, IgG1 conjugated to Compound (Id)) VH: QVQLVQSGAEVKKPGSSVKVSCKASGYTFTDYNMHWVRQAPGQGLEWIGYIYPYNGGTGYNQKFKSKATITADESTNTAYMELSSLRSEDTAVYYCARGRPAMDYWGQGTLVTVSS VL: DIQMTQSPSSLSASVGDRVTITCRASESVDNYGISFMNWFQQKPGKAPKLLIYAASNQGSGVPSRFSGSGSGTDFTLTISSLQPDDFATYYCQQSKEVPWTFGQGTKVEIK | – | – | > 0.05 |
